biological target: T1, full-length human Mineralocorticoid Receptor (MR) (Homo sapiens, UniProt P08235); assay: human MR NH Pro assay (PathHunter Protein:Protein interaction assay, MR antagonism); type: cell-based; settings: PathHunter CHO-K1 cells that overexpress human MR; aldosterone (0.3 nM), 6 hours at 37° C.; antagonist mode; read-out: IC50 rating
T1 construct: full-length human Mineralocorticoid Receptor (MR); host or cells: PathHunter CHO-K1 cells
T1 sequence (P08235 1-984): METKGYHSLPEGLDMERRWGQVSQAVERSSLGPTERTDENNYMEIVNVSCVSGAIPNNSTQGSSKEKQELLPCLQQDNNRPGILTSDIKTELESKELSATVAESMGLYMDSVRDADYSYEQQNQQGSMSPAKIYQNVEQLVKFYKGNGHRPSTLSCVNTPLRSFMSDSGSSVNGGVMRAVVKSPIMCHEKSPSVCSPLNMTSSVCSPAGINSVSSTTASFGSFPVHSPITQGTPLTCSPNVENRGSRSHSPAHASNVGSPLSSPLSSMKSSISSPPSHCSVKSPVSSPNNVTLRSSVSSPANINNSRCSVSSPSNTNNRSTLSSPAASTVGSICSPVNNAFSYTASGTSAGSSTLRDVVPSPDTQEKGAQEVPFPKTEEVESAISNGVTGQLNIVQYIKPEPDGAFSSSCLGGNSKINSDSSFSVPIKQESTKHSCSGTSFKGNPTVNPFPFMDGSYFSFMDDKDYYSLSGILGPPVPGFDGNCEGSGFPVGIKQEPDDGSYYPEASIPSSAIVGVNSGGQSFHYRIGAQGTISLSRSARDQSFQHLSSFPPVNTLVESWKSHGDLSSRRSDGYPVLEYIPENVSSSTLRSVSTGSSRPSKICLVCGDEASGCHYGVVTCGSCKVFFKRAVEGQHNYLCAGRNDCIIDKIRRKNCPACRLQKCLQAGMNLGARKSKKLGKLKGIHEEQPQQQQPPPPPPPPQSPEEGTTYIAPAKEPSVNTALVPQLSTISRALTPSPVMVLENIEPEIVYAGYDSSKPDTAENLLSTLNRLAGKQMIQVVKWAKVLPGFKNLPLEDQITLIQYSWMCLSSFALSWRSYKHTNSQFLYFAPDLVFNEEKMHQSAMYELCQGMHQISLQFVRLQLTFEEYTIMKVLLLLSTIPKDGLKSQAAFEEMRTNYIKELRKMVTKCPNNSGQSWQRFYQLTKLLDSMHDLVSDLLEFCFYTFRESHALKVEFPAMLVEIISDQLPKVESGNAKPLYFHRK
Procedure: The activity of the compounds of the present invention regarding mineralocorticoid receptor antagonism was evaluated using the following assay.
Assessment of Mr Potency in HMR NH Pro Assay
The human MR NH Pro assay is a commercially available PathHunter™ Protein:Protein interaction assay (DiscoveRx; http://www.discoverx.com/nhrs/prod-nhrs.php) that measures the ability of compounds to antagonize full-length human Mineralocorticoid Receptor (MR) binding to a coactivator peptide. PathHunter™ CHO—K1 cells that overexpress human MR (Cat #93-0456C2, Lot No: 09B0913) were cultured in growth media (F12K w/Glutamine and phenol red (Gibco 11765-047) supplemented with 10% HI FBS (Gibco 16000); 0.25 mg/ml Hygromycin in PBS (Invitrogen 10687-010, 50 mg/ml); 100 I.U./mL and 100 μg/mL Pen/Strep (Gibco 15140-122); 0.6 mg/mL Geneticin).
Compounds were assessed for MR antagonist activity by incubating the cells with a titrating dose of compound in F12K w/Glutamine and phenol red culture media (Invitrogen 11765-047) supplemented with 1% Charcoal/Dextran Treated FBS (Hyclone #SH30068.01) and aldosterone (0.3 nM) for 6 hours at 37° C. […] Growth Media: • F12K w/Glutamine and phenol red (Gibco 11765-047) • 10% HI FBS (Gibco 16000) • 0.25 mg/ml Hygromycin in PBS (Invitrogen 10687-010, 50 mg/ml) • 100 I.U./mL and 100 μg/mL Pen/Strep (Gibco 15140-122) • 0.6 mg/mL Geneticin (Gibco 10131, 50 mg/ml) • 2. Assay Media: • F12K w/Glutamine and phenol red (Invitrogen 11765-047) • 1% Charcoal/Dextran Treated FBS (Hyclone #SH30068.01) • 3. 3× PathHunter Detection Reagents (Cat#93-0001) (need ˜6 ml/plate). […] Control Agonist:Aldosterone:Sigma cat# A9477 • Prepare stock solution-10 μM in DMSO kept at −20° C. • for assay, dilute in assay media to 1.8 or 6 nM (6× of final concentration=about 0.3 nM to about 1.0 nM) • 5. Cell line: PathHunter CHO—K1 MR cells Cat #93-0456C2, Lot No: 09B0913, from operation liquid nitrogen stock. • 6. Control Antagonist:Spironolactone:Sigma #S-3378 and Eplerenone Sigma #107724-20-9 (10 mM stock concentration also prepared in DMSO and stored at −20° C.). • Methods: • Assay Set up and Calculations: • 1. Cells were grown in F12+FBS+Hygromycin+pen/strep+Genetin • 2. Cells were collected with 0.05% trypsin and the cell suspension was spun and resuspended in a volume of F12+1.5% CD-FBS and counted. • 3. The cells were resuspended to 4×10^5 cells/mL. • 4. Cells were (25 μL/well) added to the wells of a 384 well plate. • 5. The plate was then incubated at 37° C. over night in a humidified incubator with 5% CO2. • 6. Test compounds were titrated starting at 4.4 mM, 10-point titration in 1:3 dilution. • 7. Aldosterone was diluted in assay media to 1.8 nM or 6 nM from 10 μM stock (final concentration to be about 0.3 nM to about 1.0 nM). • Protocol for 384 Well Plate Format: 6 Hr Treatment: • 1. Plated 10K exponentially growing cells/well (25 μL) resuspended in assay media to each well using the Multidrop (Thermo Electron) (use white wall, clear bottom assay plates (Costar #3570) and incubate overnight at 37° C., 5% CO2. • 2. 0.25 μL 120× test compound (final DMSO concentration should be <1%) was added to each well n=2, 10 point titrations starting at 36.7 μM final concentration. • 3. 5 μL 6× agonist (final aldosterone concentration should be about 0.3 nM to about 1.0 nM) was added to all wells using the PlateMate Plus.
(ThermoFisher) (except those wells in columns 23 and 24) • 4. 5 μL of assay media was added to all wells in column 23 and 24. • 5. Plates were incubated 6 hrs at 37° C., 5% CO2. • 6. 15 μL 3× DiscoveRx detection reagent was added to each well. • 7. Plates were incubated for 1 hour at room temperature (plates stored in the dark). • 8. Plates were read on Envision (PerkinElmer) luminesence plate reader and analyzed using ADA.

| SMILES | IC50 |
| --- | --- |
| C[C@H](c1ccc(F)cc1)N1C(=O)O[C@](Cc2ccccc2)(c2nc3c(-c4ccnn4C)cccc3[nH]2)C1=O [Compound 32, (5R)-5-Benzyl-3-[(1R)-1-(4-fluorophenyl)ethyl]-5-[4-(1-methyl-1H-pyrazol-5-yl)-1H-benzimidazol-2-yl]-1,3-oxazolidine-2,4-dione] | 100 to 500 nM |
| COc1ncccc1-c1cccc2[nH]c([C@@]3(Cc4ccccc4)OC(=O)N([C@H](C)c4ccc(F)cc4)C3=O)nc12 [Compound 33, (5R)-5-Benzyl-3-[(1R)-1-(4-fluorophenyl)ethyl]-5-[4-(2-methoxypyridin-3-yl)-1H-benzimidazol-2-yl]-1,3-oxazolidine-2,4-dione] | < 100 nM |
| C[C@H](c1ccc(F)cc1)N1C(=O)O[C@](Cc2ccccc2)(c2nc3c(-c4cncnc4)cccc3[nH]2)C1=O [Compound 35, (5R)-5-Benzyl-3-[(1R)-1-(4-fluorophenyl)ethyl]-5-(4-pyrimidin-5-yl-1H-benzimidazol-2-yl)-1,3-oxazolidine-2,4-dione] | 100 to 500 nM |
| C[C@H](c1ccc(F)cc1)N1C(=O)O[C@](Cc2ccccc2)(c2nc3cc(F)c(F)cc3n2C)C1=O [Compound 37, (5R)-5-Benzyl-5-(5,6-difluoro-1-methyl-1H-benzimidazol-2-yl)-3-[(1R)-1-(4-fluorophenyl)ethyl]-1,3-oxazolidine-2,4-dione] | 100 to 500 nM |

Second part, the molecule after the results:

| IC50 | SMILES |
| --- | --- |
| 100 to 500 nM | C[C@H](c1ccc(F)cc1)N1C(=O)O[C@](Cc2ccccc2)(c2nc3c(-c4ccncc4)cccc3[nH]2)C1=O [Compound 34, (5R)-5-Benzyl-3-[(1R)-1-(4-fluorophenyl)ethyl]-5-(4-pyridin-4-yl-1H-benzimidazol-2-yl)-1,3-oxazolidine-2,4-dione] |
| 100 to 500 nM | C[C@H](c1ccc(F)cc1)N1C(=O)O[C@](Cc2ccccc2)(c2nc3c(-c4cccnc4)cccc3[nH]2)C1=O [Compound 36, (5R)-5-Benzyl-3-[(1R)-1-(4-fluorophenyl)ethyl]-5-(4-pyridin-3-yl-1H-benzimidazol-2-yl)-1,3-oxazolidine-2,4-dione] |

same assay, conditions: Table 3; PathHunter CHO-K1 cells that overexpress human MR; aldosterone (0.3 nM), 6 hours at 37° C.; antagonist mode; read-out: IC50

| IC50 | SMILES |
| --- | --- |
| 500 to 2000 nM | CCCCC[C@@H](C)N1C(=O)O[C@](Cc2ccccc2)(c2nc3cc(NS(C)(=O)=O)ccc3[nH]2)C1=O [Example 40, N-(2-((R)-5-benzyl-3-((R)-heptan-2-yl)-2,4-dioxooxazolidin-5-yl)-1H-benzo[d]imidazol-5-yl)methanesulfonamide] |
| 500 to 2000 nM | CCCCCC[C@@H](C)N1C(=O)O[C@](Cc2ccc(F)cc2)(c2nc3cc(NS(C)(=O)=O)ccc3[nH]2)C1=O [Example 41, N-(2-((R)-5-(4-fluorobenzyl)-3-((R)-octan-2-yl)-2,4-dioxooxazolidin-5-yl)-1H-benzo[d]imidazol-5-yl)methanesulfonamide] |
| 500 to 2000 nM | CCCCCC[C@@H](C)N1C(=O)O[C@](Cc2ccccc2)(c2nc3cc(NS(C)(=O)=O)ccc3[nH]2)C1=O [Example 42, N-(2-((R)-5-benzyl-3-((R)-octan-2-yl)-2,4-dioxooxazolidin-5-yl)-1H-benzo[d]imidazol-5-yl)methanesulfonamide] |

Source: patent publication US9193717B2, “Mineralocorticoid receptor antagonists” (Merck Sharp & Dohme Corp., priority 2011, dated 2015)
